Assay results reported in publication PMC11858294, “Design, Synthesis and Biological Activity Study of γ-Aminobutyric Acid (GABA) Derivatives Containing Bridged Bicyclic Skeletons as BCAT1 Inhibitors” (Molecules, 2025).

Columns and labels:
BCAT1 enzyme = target: T1, BCAT1 enzyme (Homo sapiens, UniProt P54687); assay: BCAT1 enzyme inhibition assay (LeuDH-coupled, NADH fluorescence); assay type: biochemical
T1 construct: purchased Sino Biological ME17NO0265
T1 sequence (P54687 1-386): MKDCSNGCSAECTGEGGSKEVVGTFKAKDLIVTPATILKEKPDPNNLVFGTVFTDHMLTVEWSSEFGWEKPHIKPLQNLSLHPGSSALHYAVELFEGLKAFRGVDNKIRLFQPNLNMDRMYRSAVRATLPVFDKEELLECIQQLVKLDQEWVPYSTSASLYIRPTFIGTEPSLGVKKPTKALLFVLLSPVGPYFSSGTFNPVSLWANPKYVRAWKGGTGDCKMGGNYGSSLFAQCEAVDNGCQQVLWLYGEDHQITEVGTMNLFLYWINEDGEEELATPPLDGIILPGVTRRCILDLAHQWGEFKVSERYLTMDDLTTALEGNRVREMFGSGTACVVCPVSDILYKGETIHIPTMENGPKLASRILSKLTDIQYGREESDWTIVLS
Protocol: The inhibitory activity of the synthesized compounds against BCAT1 enzyme was screened by a known method, where leucine dehydrogenase (LeuDH) was utilized to catalyze the nicotinamide adenine dinucleotide (NADH)-dependent reduction of the BCAA α-ketoisocaproate (α-KIC) to leucine and NADH consumption was measured through fluorescence and luminescence readouts to assess BCAT1 activity.
The compounds to be tested or PBS was added to a 384-well plate, followed by the addition of assay buffer (50 mM ammonium sulfate, 1 mM EDTA, 2 mM DTT, 0.01% BSA, 0.5 μM PLP, 50 mM HEPES buffer (pH 7.4)), 0.01 U LeuDH enzyme (#E0217, Nanjing Duly Biotechnology Co., Ltd., Nanjing, China) and 15 ng BCAT1 enzyme (#ME17NO0265, Sino Biological, Beijing, China). Subsequently, 40 μM α-KG, 100 μM Leucine and 10 μM NADH substrate mixture were added to initiate the reaction. Fluorescence changes in NADH were dynamically monitored using the Spark cyto (Tecan, Männedorf, Switzerland). The rate of NADH fluorescence decay was calculated to assess enzyme activity.

NCI-H1975 cells = assay: Cell proliferation assay (SRB), NCI-H1975 cells; assay type: cell-based; settings: Homo sapiens, proliferation inhibition, 120 h, mean ± SD (n = 3)
Description: (§1) Subsequently, we evaluated the in vitro anti-proliferative activity of compounds 1, 2, 4 and 7 on the proliferation of both 67R and NCI-H1975 cells, using gabapentin as positive controls (Figure 3 and Table 2). These four compounds represented the potent BCAT1 inhibitors in the above enzymatic assay.
(§2) Cell culture and chemical reagents: Human NSCLC NCI-H1975 cells were purchased from American Type Culture Collection (ATCC, Manassas, VA, USA) and cultured in RPMI 1640 medium with 10% FBS in a cell incubator (37 °C, 5% CO2). ASK120067-resistant cells (67R) were constructed, cultured, and authenticated as described previously. Gabapentin (#T0702) was purchased from TargetMol (Boston, MA, USA).
(§3) A sulforodamine B (SRB) colorimetric assay was employed to detect the inhibitory effect of compounds on cell proliferation. Cells in the logarithmic growth phase were seeded into 96-well plates and cultured overnight. After incubation with the indicated compounds for 120 h, the culture medium was discarded. Then, 100 μL of 10% pre-cooled trichloroacetic acid (TCA) was added to each well to fix the cells at 4 °C for 1 h. The wells were then washed five times with distilled water. After drying, 100 μL of SRB dye (4 mg/mL SRB dissolved in 1% glacial acetic acid) was added to each well, and the cells were stained for 15 min at room temperature. After washing with 1% glacial acetic acid for five times, the plate was dried again. To dissolve the dye, 150 μL of 10 mM Tris solution was added to each well. The optical density (OD) was measured at 560 nm using a multi-well VersaMax spectrophotometer (Molecular Devices, Sunnyvale, CA, USA). The relative inhibition rate of the compounds on cell proliferation was calculated using the following formula: Inhibition rate (%) = [1 − (A560treated/A560control)] × 100%. The IC50 values were determined from the dose–response curves using the logit method.

67R cells = assay: Cell proliferation assay (SRB), ASK120067-resistant 67R cells; assay type: cell-based, Human; settings: 120 h, proliferation inhibition, mean ± SD (n = 3), cells with high BCAT1 expression
Description: as §1, §2, §3

BCAT1 = test system: BCAT1; set-up: method as in PMID 39791161; settings: Figure 1; cited from earlier work
hBCAT1 = test system: hBCAT1; set-up: method as in PMID 39791161; settings: Figure 1; cited from earlier work

Compound	IC50 (BCAT1 enzyme) [µM]	IC50 (NCI-H1975 cells) [µM]	IC50 (67R cells; Homo sapiens) [µM]	also measured
NC[C@@]1(CC(=O)O)C[C@H]2C=C[C@@H]1C2 (relative stereo) [2•p-TsOH, 2-((1S*,2R*,4S*)-2-(Aminomethyl)bicyclo[2.2.1]hept-5-en-2-yl)acetic acid]	2040 ± 980	8990 ± 670	< 2000	IC50 (67R cells): 2710 ± 330 µM
NC[C@]1(CC(=O)O)C[C@H]2C=C[C@@H]1C2 (relative stereo) [3•p-TsOH, 2-((1S*,2S*,4S*)-2-(Aminomethyl)bicyclo[2.2.1]hept-5-en-2-yl)acetic acid]	3960 ± 2830			
NC[C@]1(CC(=O)O)C[C@H]2CCC[C@@H]1C2 (relative stereo) [5•HBr, 2-((1S*,5R*,6S*)-6-(Aminomethyl)bicyclo[3.2.1]octan-6-yl)acetic acid]	4200 ± 1840			
NC[C@@]1(CC(=O)O)C[C@H]2CC=C[C@@H]1C2 (relative stereo) [7•p-TsOH, 2-((1S*,5S*,6R*)-6-(Aminomethyl)bicyclo[3.2.1]oct-3-en-6-yl)acetic acid]	780 ± 190	7260 ± 730	< 2000	enhancement in BCAT1 enzymatic inhibitory activity compared to the parent compound WQQ-345 (BCAT1 enzyme; ratio of IC50 values versus WQQ-345): 6 fold; IC50 (67R cells): 1640 ± 490 µM
NC[C@]1(CC(=O)O)C[C@H]2CCCC1CC2 (relative stereo) [8•HBr, 2-((1S*,6S*)-6-(Aminomethyl)bicyclo[3.2.2]nonan-6-yl)acetic acid]	14500 ± 6390			
NC[C@@]1(CC(=O)O)C[C@H]2CC[C@@H]1C2 (relative stereo) [Compound 1, 2-((1R*,2R*,4S*)-2-(Aminomethyl)bicyclo[2.2.1]heptan-2-yl)acetic acid]	2040 ± 590	7820 ± 480	2600 ± 930	
NC[C@@]1(CC(=O)O)C[C@H]2CCC[C@@H]1C2 (relative stereo) [Compound 6, 2-((1S*,5R*,6R*)-6-(Aminomethyl)bicyclo[3.2.1]octan-6-yl)acetic acid]	1540 ± 470			
NCC1(CC(=O)O)CC2CCC1CC2 (stereo not drawn) [4•HBr, 2-((1R*,2S*,4R*)-2-(aminomethyl)bicyclo[2.2.2]octan-2-yl)acetic acid]	1710 ± 1000	8080 ± 960	1380 ± 370	
Cc1ccccc1Oc1cc(-n2c(=O)cc(C(F)(F)F)[nH]c2=O)c2ccccc2c1Cl [BAY-069]				IC50 (BCAT1): 0.031 µM
CC(=O)C(C)CCC(=O)O (centres unmarked) [MOHA]				IC50 (hBCAT1): 1 to 10 µM
NC[C@]1(CC(=O)O)C[C@H]2CC[C@@H]1C2 [WQQ-345•HBr]	4860 ± 1980			
NCC1(CC(=O)O)CCCCC1 [gabapentin, reference compound]	5070 ± 1060	> 10000	3530 ± 220	Ki (hBCAT1): 3500 µM
